Measurements from publication PMC8791944, “GLUT3 inhibitor discovery through in silico ligand screening and in vivo validation in eukaryotic expression systems” (Scientific Reports, 2022).

Each compound was assayed against T1, GLUT1 (Homo sapiens, UniProt P11166) (assay: Glucose transport assay, GLUT1 expressed in hxt^0 yeast cells EBY.S7). Settings: read-out: IC50 for GLUT1 transport inhibition.
T1 construct: expressed in transfected cells; host or cells: Saccharomyces cerevisiae hxt0 strain EBY.S7 (fgy1)
T1 sequence (P11166 1-492): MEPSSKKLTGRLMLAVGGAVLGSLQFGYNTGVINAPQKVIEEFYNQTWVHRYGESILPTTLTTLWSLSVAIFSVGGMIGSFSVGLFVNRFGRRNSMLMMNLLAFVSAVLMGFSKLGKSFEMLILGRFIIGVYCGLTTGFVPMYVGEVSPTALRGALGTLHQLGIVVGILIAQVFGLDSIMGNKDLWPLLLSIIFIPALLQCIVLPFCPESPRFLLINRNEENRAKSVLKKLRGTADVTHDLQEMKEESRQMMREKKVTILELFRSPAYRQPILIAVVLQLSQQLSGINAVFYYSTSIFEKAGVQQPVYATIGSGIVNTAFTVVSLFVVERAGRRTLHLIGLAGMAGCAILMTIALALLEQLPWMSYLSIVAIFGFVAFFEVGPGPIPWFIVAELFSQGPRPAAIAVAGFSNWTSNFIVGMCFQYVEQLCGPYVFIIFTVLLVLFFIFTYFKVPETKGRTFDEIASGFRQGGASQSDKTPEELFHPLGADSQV
Assay type: cell-based
Excerpt: The most studied GLUTs are Class 1 GLUTs (GLUT1-4) and a Class 2 GLUT, GLUT5 (a fructose-only transporter). GLUT3 sequence homology and identity is 79% and 64%, 71% and 52%, 74% and 57%, and 60% and 38% with GLUT1, GLUT2, GLUT4, and GLUT5, respectively. The hxt^0 yeast cell systems expressing functional GLUT1-4[65],[69] and GLUT5[66] allow us to determine the in vivo transport activity (substrate uptake by a GLUT into whole cells) for individual GLUTs and establish GLUT3 inhibitor selectivity for these transporters. […] Given the higher sequence similarity within Class 1 GLUTs, we expected GLUT3 inhibitors to affect Class 1 GLUTs much more than GLUT5. Indeed, G3iA-G3iF reduced the transport activities of some of the other Class 1 GLUTs (Fig. 3A–C, Table 2, Supplementary Fig. S6). […] For example, G3iB was an equipotent inhibitor of GLUT4, while G3iD and G3iE inhibited GLUT1 in a similar manner to GLUT3. […] Moreover, G3iD affected all Class 1 GLUTs, having the best relative selectivity for GLUT4.
Figure 3 Effect of GLUT3 inhibitors on GLUT1, GLUT2, GLUT4, and GLUT5. The transport activity was assayed as the substrate uptake in hexose transporter-deficient yeast cells expressing functional GLUT1[65], GLUT2[69], GLUT4[65], or GLUT5[66]. […] Transport assay was initiated by the addition of C^14-labeled substrate and stopped after 10 min (see “Materials and methods” for details). (A–D) Effect of G3iA-G3iF, at 50 µM concentration, on the relative transport activities of GLUT1 (A), GLUT2 (B), GLUT4 (C), and GLUT5 (D). Standard deviations for experimental points come from at least three independent measurements.
The plasmids containing functional constructs of GLUT1-5 were transformed in the corresponding hxt^0 strains[65],[66],[73] (EBY.VW4000 for GLUT5S72Y, EBY.S7 for GLUT1, GLUT2∆loopS_Q455R, GLUT3 and GLUT3S66Y, and SDY.022 for GLUT4) and grown on 2% (w/v) agar plates of the respective media supplemented with 1% (w/v) maltose. An initial culture of ~ 10 ml was started with a few colonies and grown for 2–3 days if the media was SC-uracil with 1% (w/v) maltose (GLUT1, GLUT3, GLUT4) or 1–2 days if the media was YEP with 1% (w/v) maltose and 100 µg/ml geneticin G418 (GLUT2∆loopS_Q455R and GLUT5S72Y). […] Then, cells were transferred in the same media so that OD600nm ~ 0.5 and grown further for 1–2 days.
For transport activity assay, cells in the hexose media were centrifuged (1000×g, 5 min, room temperature), washed once with PBS buffer (10 mM Na2HPO4, 1.8 mM KH2PO4, 2.7 mM KCl, 137 mM NaCl, pH 7.4), and resuspended in PBS buffer at an OD600nm ~ 10; each assay contained 100 µl of this cell solution. […] Substrate uptake into cells was linear for more than 20 min. […] The filtration membranes were transferred into scintillation vials with 10 ml of Scintillation Solution (BioSafeII; Research Products International, Mount Prospect, IL, USA), and vortexed briefly. The radioactivity was determined with a scintillation counter (Tri-carb 2900TR, Perkin Elmer, USA). As all compounds were solubilized in dimethyl sulfoxide (DMSO), controls for determining the relative transport activity included 1% (v/v) DMSO to represent DMSO used as vehicle control (i.e., 100% activity), and known inhibitors at saturating concentrations, 200 µM phloretin for GLUT1-4[69],[82], and 100 µM N-[4-(methylsulfonyl)-2-nitrophenyl]-1,3-benzodioxol-5-amine (MSNBA) for GLUT5 (i.e., complete inhibition). […] Data were analyzed with GraphPad Prism (San Diego, CA, USA).
Supplementary Figure S6. Dose response curves for GLUT3 inhibitors on the transport activities of GLUT1, GLUT2, and GLUT4 in hxt^0 yeast cells. Dose response curves for GLUT3 inhibitors in GLUT1 (top row), GLUT2 (middle row), and GLUT4 (bottom row). […] Error bars represent standard deviations from at least three independent measurements. Graphs, data analysis, and IC50 values were generated with GraphPad (www.graphpad.com).
COc1ccccc1-n1c(/C=C/c2ccc(O)cc2)nc2ccc(Br)cc2c1=O [G3iB, 6-bromo-2-[(E)-2-(4-hydroxyphenyl)ethenyl]-3-(2-methoxyphenyl)quinazolin-4(3H)-one] showed an IC50 of 25 ± 8.6 µM. Compound Cc1cc(NC(=O)CCC2Cc3ccccc3NC2=O)nc(-c2ccccc2)n1 (stereo not drawn) [G3iD] has an IC50 of 17.7 ± 2.3 µM. Compound O=C(Nc1cccc(Cl)c1)c1cccc(NC(=O)c2cccc([N+](=O)[O-])c2)c1 [G3iE, N-{3-[(3-chloroanilino)carbonyl]phenyl}-3-nitrobenzamide] has an IC50 of 22.4 ± 3.7 µM. In the case of Cc1cccnc1OC1CCN(c2cc(N3CCCC3CO)ncn2)CC1 (stereo not drawn) [G3iC], the IC50 is reported as 49.4 ± 6.7 µM. For Cc1ccccc1CN(Cc1nnc(C(C)(C)C)o1)c1ccc2nc(O)[nH]c2c1 [G3iF], the IC50 was over 50 µM. Work on CC(=O)Nc1ccc(S(=O)(=O)Nc2ccc(Nc3cc(N(C)C)nc(C)n3)cc2)cc1 [G3iA, N-(4-{[(4-{[6-(dimethylamino)-2-methylpyrimidin-4-yl]amino}phenyl)amino]sulfonyl}phenyl)acetamide] yielded an IC50 of over 50 µM.
